From publication PMC9080739 (2018)

Tests used:
[1] = system: telo21 (DNA, G4) GGGTTAGGGTTAGGGTTAGGG; assay: fluorescence titration; conditions: K+ 60 mM; 10 mM Tris-HCl pH 7.4; ligand 5 μM
[2] = system: dA21 (DNA, single strand) AAAAAAAAAAAAAAAAAAAAA; assay: fluorescence enhancement; conditions: K+ 60 mM; Tris-HCl pH 7.4; ligand 5 μM
[3] = system: ds26 (DNA, duplex) CAATCGGATCGAATTCGATCCGATTG; assay: fluorescence enhancement; conditions: K+ 60 mM; Tris-HCl pH 7.4; ligand 5 μM

Compound | K [1] | binding [2] | binding [3]
CN(C)c1ccc(/C=C/c2cccc(/C=C/c3ccc(N(C)C)cc3)[n+]2C)cc1 | 1.44 ± 0.35 × 10^5 M^-1 | weak | weak
CSc1ccc(/C=C/c2cccc(/C=C/c3ccc(SC)cc3)[n+]2C)cc1 | 1.18 ± 0.21 × 10^5 M^-1 | – | –
